Measurements: ChEMBL document CHEMBL1201862, “PubChem BioAssay data set” (2004)
Activity calls are given as the source filed them.

Tests used:
[1] = molecular target: T1, Protein skinhead-1 (Caenorhabditis elegans, UniProt P34707); format: functional
T1 sequence (P34707 whole entry): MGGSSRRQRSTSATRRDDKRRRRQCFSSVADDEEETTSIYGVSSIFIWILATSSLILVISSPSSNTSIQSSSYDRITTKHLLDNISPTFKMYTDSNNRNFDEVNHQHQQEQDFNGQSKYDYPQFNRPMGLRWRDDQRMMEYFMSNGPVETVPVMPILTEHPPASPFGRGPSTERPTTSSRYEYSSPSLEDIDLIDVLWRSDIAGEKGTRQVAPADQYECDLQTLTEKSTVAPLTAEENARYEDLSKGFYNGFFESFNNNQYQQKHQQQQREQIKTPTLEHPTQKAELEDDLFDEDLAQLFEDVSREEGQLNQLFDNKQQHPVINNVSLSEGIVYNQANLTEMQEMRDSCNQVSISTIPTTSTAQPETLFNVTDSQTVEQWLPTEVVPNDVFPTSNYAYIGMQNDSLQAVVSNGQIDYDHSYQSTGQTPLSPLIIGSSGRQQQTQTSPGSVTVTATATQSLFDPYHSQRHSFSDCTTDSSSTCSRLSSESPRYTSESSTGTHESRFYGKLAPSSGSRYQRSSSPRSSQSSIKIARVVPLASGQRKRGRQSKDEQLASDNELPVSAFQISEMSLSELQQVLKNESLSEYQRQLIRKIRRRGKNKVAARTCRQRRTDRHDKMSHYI

[2] = system: H4; assay: Luminescence Cell-Based Dose Response HTS to Identify Activators of 5'UTR Stem-Loop Driven Prion Protein mRNA Translation in H4 Neuroglioblastoma Cells. [Related pubchem assays: 1829 (Project Summary), 1814 (Primary HTS)]; format: functional; details: Homo sapiens
[3] = Luminescence Cell-Based Dose Response HTS to Identify Activators of Luciferase Translation or Activity in H4 […] Cells. [Related pubchem assays: 1829 (Project Summary), 1814 (Primary HTS)]; format: functional
[4] = molecular target: T2, RNA-binding protein pos-1 (Caenorhabditis elegans, UniProt G5EF15); assay: inhibitors of POS-1/mex-3 RNA binding, dose response, biochemical, fluorescence polarization (AID 1964);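 also: purified POS-1 fused to maltose binding protein made in E. coli; potency of compounds blocking POS-1 binding to fluorescent RNA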
T2 sequence (G5EF15 whole entry): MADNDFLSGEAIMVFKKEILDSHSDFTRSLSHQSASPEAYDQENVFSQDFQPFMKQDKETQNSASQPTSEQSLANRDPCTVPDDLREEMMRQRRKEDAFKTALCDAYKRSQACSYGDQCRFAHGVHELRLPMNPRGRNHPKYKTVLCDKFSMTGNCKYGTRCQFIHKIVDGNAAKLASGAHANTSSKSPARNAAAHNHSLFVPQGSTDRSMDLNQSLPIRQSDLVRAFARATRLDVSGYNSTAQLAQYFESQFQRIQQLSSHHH

[5] = molecular target: T3, Zinc finger protein mex-5 (Caenorhabditis elegans, UniProt Q9XUB2); assay: MEX-5/TCR-2 RNA interaction inhibitors, dose response, biochemical, C. elegans, fluorescence polarization (AID 1960)
T3 sequence (Q9XUB2 whole entry): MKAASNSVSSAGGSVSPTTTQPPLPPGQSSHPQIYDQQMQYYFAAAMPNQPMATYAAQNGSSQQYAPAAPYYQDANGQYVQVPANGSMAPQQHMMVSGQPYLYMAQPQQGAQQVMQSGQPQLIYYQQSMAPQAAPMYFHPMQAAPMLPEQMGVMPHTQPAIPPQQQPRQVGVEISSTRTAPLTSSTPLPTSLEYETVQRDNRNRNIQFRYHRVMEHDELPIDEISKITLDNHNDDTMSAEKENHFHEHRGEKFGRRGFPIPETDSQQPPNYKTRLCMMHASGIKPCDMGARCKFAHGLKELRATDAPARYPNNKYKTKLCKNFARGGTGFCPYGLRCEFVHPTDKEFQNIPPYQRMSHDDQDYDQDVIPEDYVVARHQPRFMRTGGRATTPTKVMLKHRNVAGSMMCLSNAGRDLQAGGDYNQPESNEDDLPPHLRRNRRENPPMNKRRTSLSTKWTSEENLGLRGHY

[6] = molecular target: T4, Corticotropin-releasing factor receptor 2/Corticotropin-releasing factor-binding protein (Homo sapiens, UniProt P24387+Q13324); assay: activators of CRF receptor 2 with binding protein – uHTS hits, confirmation (AID 602473); format: functional; details: read-out: EC50_Mean
T4 sequence (Q13324 whole entry): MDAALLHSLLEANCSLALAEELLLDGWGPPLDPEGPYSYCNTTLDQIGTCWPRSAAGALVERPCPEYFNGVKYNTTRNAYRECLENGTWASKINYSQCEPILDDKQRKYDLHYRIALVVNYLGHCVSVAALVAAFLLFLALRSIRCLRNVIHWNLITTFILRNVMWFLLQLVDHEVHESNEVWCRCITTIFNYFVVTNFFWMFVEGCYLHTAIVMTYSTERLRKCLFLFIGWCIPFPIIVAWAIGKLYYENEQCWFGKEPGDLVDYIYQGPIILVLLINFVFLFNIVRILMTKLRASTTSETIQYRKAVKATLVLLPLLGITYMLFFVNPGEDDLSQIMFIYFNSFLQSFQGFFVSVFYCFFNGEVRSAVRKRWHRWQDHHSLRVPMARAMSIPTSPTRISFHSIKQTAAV
T4 sequence (P24387 whole entry): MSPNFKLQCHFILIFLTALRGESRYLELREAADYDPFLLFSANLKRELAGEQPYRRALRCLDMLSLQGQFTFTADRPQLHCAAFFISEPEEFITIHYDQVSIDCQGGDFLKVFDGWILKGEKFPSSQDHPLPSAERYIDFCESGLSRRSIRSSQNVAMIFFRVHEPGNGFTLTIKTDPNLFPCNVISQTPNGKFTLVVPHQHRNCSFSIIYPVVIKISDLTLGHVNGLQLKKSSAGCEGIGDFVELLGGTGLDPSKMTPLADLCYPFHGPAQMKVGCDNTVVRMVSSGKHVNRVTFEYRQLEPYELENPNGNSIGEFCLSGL

[7] = system: H9c2; assay: cells; format: functional, cell-based; details: Rattus norvegicus, H9c2, Myocardium;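 also: confirmatory concentration-response retest of ultra-high-throughput screening hits for modulation of myocardial damage; cell death induced by hydrogen peroxide oxidative stress; compound pretreatment for 60 min then peroxide exposure for 2 h; potency is for protecting the cells against peroxide damage rather than for killing them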
[8] = molecular target: T5, Carboxy-terminal domain RNA polymerase II polypeptide A small phosphatase 1 (Homo sapiens, UniProt Q9GZU7); assay: inhibitors of CTDSP1, concentration-response testing, biochemical assay, absorbance-based, actives from ultra-high-throughput screening (AID 540297); format: functional
T5 sequence (Q9GZU7 whole entry): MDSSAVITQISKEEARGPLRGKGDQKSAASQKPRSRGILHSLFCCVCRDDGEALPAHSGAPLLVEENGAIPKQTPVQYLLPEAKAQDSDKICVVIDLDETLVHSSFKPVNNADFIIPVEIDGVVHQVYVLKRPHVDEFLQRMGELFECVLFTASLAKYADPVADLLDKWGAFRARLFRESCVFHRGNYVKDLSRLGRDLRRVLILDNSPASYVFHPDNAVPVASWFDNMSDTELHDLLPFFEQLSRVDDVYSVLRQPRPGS

[9] = molecular target: T6, Heat shock factor protein 1 (Mus musculus, UniProt P38532); assay: HSF1 potentiators in luciferase reporter cells, confirmation, cell-based, NIH3T3, luminescence, dose retest (AID 435004); format: functional;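 also: stress induced by proteasome inhibitor MG132 added 30 min after compound; luciferase reporter driven by HSF1 response element in NIH3T3 cells; actives raise luminescence as potentiators of the MG132 stress response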
T6 sequence (P38532 whole entry): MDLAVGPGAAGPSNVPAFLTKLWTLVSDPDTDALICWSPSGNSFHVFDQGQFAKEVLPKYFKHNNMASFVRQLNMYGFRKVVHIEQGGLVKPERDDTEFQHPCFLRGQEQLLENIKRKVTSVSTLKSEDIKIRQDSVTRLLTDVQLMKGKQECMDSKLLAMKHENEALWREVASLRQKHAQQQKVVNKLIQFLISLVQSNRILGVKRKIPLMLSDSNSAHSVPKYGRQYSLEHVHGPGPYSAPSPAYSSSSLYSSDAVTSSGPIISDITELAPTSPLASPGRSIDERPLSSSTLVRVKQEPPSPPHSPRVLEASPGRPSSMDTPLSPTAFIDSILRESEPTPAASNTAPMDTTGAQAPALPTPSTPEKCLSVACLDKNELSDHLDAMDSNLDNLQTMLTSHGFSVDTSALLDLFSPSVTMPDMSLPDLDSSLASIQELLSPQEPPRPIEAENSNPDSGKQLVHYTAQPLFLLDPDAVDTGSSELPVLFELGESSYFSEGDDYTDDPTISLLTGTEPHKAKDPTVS

SMILES: CN(C)S(=O)(=O)c1ccc(N2CCCC2)c(C(=O)NCc2cccc(C(F)(F)F)c2)c1
- IC50 [1]: > 100 µM (inactive)

SMILES: c1ccc(-c2noc(CC3CCCCC3)n2)cc1
- EC50 [2]: > 120 µM (not active)
- EC50 [3]: > 120 µM (not active)

SMILES: O=C1NC(=O)N(CCc2ccc(F)cc2)C(=O)/C1=C/NNC(=O)c1ccccc1
- EC50 [4]: > 300 µM (not active)
- EC50 [5]: > 300 µM (not active)

SMILES: O=C(NCCC1=CCCCC1)c1cnc2n(c1=O)CCS2
- EC50 [2]: 56.6 µM (active)
- EC50 [3]: 39.9 µM (active)

SMILES: O=C(NCc1ccco1)C1CC(c2ccccc2O)=NO1 (stereo not given)
- EC50 [6]: > 53 µM (inactive)

SMILES: COc1ccc(OC)c(C2C(C(=O)c3ccco3)=C(O)C(=O)N2CCN2CCOCC2)c1 (stereo not given)
- EC50 [4]: > 300 µM (not active)
- EC50 [5]: > 300 µM (not active)

SMILES: Cc1sc2nc(NCCO)nc(O)c2c1C
- IC50 [7]: > 79 µM (inactive)

SMILES: Fc1ccc(COc2ccc(-c3nnco3)cc2)c(Cl)c1
- IC50 [1]: 6.56 µM (active)

SMILES: O=C1/C(=C/c2ccco2)CCc2ccccc21
- IC50 [1]: 31.2 µM (active)

SMILES: O=C(CSc1nc2ccccc2o1)NCc1nnc(O)c2ccccc12
- IC50 [7]: 8.34 µM (active)

SMILES: CCC(=O)N1c2ccc(S(=O)(=O)CCC(=O)NCc3cccs3)cc2CC1C (stereo not given)
- IC50 [1]: > 100 µM (inactive)

SMILES: O=C(Nc1ccc2c(c1)oc1ccccc12)N1CCOCC1
- EC50 [2]: > 120 µM (not active)
- EC50 [3]: 1.32 µM (active)

SMILES: CCOC(=O)c1nc(Nc2ccc(C(=O)OC)cc2)c2ccccc2n1
- IC50 [7]: > 79 µM (inactive)

SMILES: Cc1cc(C)nc(N2C(=O)CC(C(C)c3ccccc3)C2=O)n1 (stereo not given)
- IC50 [1]: > 100 µM (inactive)

SMILES: Fc1ccc(CSc2nc3cc(Br)c[nH]c-3n2)cc1
- IC50 [8]: 9.63 µM (active)

SMILES: CCCc1nc2ccccc2c(C(=O)OCc2nnc(-c3cc(OC)c(OC)c(OC)c3)o2)c1CC
- IC50 [7]: > 79 µM (inactive)

SMILES: CCCC(=O)Nc1cc(C)c2c(=O)oc3ccccc3c2n1
- IC50 [7]: > 79 µM (inactive)

SMILES: CCCCOc1ccc(-c2nnc(-c3ccco3)o2)cc1
- IC50 [1]: > 100 µM (inactive)
- EC50 [9]: > 260 µM (inactive)

SMILES: CC(C)c1ccc2oc(-c3ccc(NC(=O)c4nnc[nH]4)cc3)nc2c1
- IC50 [8]: 6.65 µM (active)

SMILES: Clc1ccc(OCCCc2nc(-c3ccncc3)no2)c(Cl)c1
- IC50 [1]: 20.4 µM (active)

SMILES: O=C(CN1C(=O)N/C(=C\c2ccccc2OCc2ccc(C(=O)O)cc2)C1=O)Nc1ccccc1F
- IC50 [8]: 7.13 µM (active)

SMILES: O=C(Nc1cccc(-c2nc3ccccc3s2)c1)c1cc(=O)c2ccccc2o1
- IC50 [8]: 5.07 µM (active)

SMILES: Cc1nnc(SCC2=C(C(=O)O)N3C(=O)C(NC(=O)COc4ccccc4)C3SC2)s1 (stereo not given)
- IC50 [8]: 8.97 µM (active)

SMILES: N#Cc1c(SCC(=O)Nc2cccc(C(F)(F)F)c2)sc2c(O)cc(O)nc12
- IC50 [8]: 10.4 µM (active)

SMILES: CC(Oc1ccc(Br)cc1)C(=O)N1CCc2ccccc21 (stereo not given)
- EC50 [6]: 8.32 µM (active)

SMILES: COC(=O)[C@H](CCSC)NC(=O)NC1CCN(Cc2ccccc2)CC1
- EC50 [4]: > 300 µM (not active)
- EC50 [5]: > 300 µM (not active)

SMILES: Cc1nonc1OC(C)CNc1ccc([N+](=O)[O-])cc1 (stereo not given)
- IC50 [1]: > 100 µM (inactive)

SMILES: CCOC(=O)N1CC=C2C(C#N)=C(N)C(C#N)(C#N)[C@H](c3ccsc3)[C@H]2C1
- EC50 [4]: 78.8 µM (active)
- EC50 [5]: 58.7 µM (active)

SMILES: NC(=O)CC(NC(=O)Cc1cccc2ccccc12)c1ccc(N2CCC(N3CCCCC3)CC2)c([N+](=O)[O-])c1 (stereo not given)
- IC50 [1]: > 100 µM (inactive)

SMILES: CCCn1c(=O)[nH]c(=O)c2c1nc(-c1ccccc1)n2CCN1CCOCC1
- IC50 [8]: 47.8 µM (active)

SMILES: CN1CN(c2ccccc2)C2(CCN(CCCSc3ccccc3NC(=O)/C=C/c3ccccc3)CC2)C1=O
- EC50 [6]: 6.22 µM (active)

SMILES: NC(=O)c1cccc(-c2coc3c(C(=O)NCCc4ccccc4)cccc23)c1
- IC50 [7]: > 79 µM (inactive)

SMILES: O=C(N/N=C/c1ccccn1)c1cc(-c2cccc3ccccc23)[nH]n1
- IC50 [7]: > 79 µM (inactive)

SMILES: CC1(C)Oc2ccc3ccc(=O)oc3c2C(/C=N/c2ccccn2)=C1O
- IC50 [7]: > 79 µM (inactive)

SMILES: Cc1ccc(/N=C/c2sc(O)c3ccccc23)c(C)c1
- EC50 [4]: > 300 µM (not active)
- EC50 [5]: > 300 µM (inconclusive)

SMILES: O=C(N/N=C/c1ccccn1)c1ccc(NC(=O)c2cccc([N+](=O)[O-])c2)cc1
- IC50 [7]: > 79 µM (inactive)

SMILES: Cc1[nH]c2ccccc2c1/C=N/NC(=S)NC(C)C
- EC50 [4]: > 300 µM (not active)
- EC50 [5]: > 300 µM (not active)

SMILES: CC(=O)Oc1oc(-c2ccccc2)nc1/C=N/c1ccc(N(C)C)cc1
- EC50 [4]: > 300 µM (not active)
- EC50 [5]: > 300 µM (not active)

SMILES: O=C(O)COc1ccc(Br)cc1/C=N/O
- IC50 [8]: 8.03 µM (active)
